Assay results from patent US20260356856A1, “KRAS G12S AND G12C INHIBITORS” (MIRATI THERAPEUTICS, INC., priority 2023, published 2026).

Experiments:
[1] = biological target: T1, KRas-mediated phosphorylation of ERK in MKN1 cells (Homo sapiens, UniProt P01116); assay: Inhibition of KRas-mediated phosphorylation of ERK (HTRF), MKN1 cells; format: cell-based; conditions: MKN1 cells (KRas WT); HTRF pERK; 3 h incubation
T1 construct: pERK HTRF read-out
Description: Inhibition of KRas Phosphorylation of ERK (HTRF) by Exemplary Compounds of Formula (Ia) or (Ib)
Cisbio HTRF Advanced pERK Assay Catalog #64AERPEH • Cells: MKN1, PSN1 • Procedure: • 1. Day 1: Seed 6,000 cells/well −25 μl/well in 384-well white solid bottom plate; RPM1_10% FBS. Incubate overnight at 37 °C/5% CO2. • 2.

[2] = biological target: T2, KRas-mediated phosphorylation of ERK in A549 cells (Homo sapiens, UniProt P01116, G12S); assay: Inhibition of KRas-mediated phosphorylation of ERK (HTRF), A549 cells; format: cell-based; conditions: HTRF pERK, 3 h incubation
T2 construct: pERK HTRF read-out

KRas G12C = biological target: T3, KRas G12C (Homo sapiens, UniProt P01116, G12C); assay: KRas binding assay, TR-FRET displacement of Cy5 labelled tracer; conditions: 60-minute incubation at room temperature, 1% DMSO, pH 7.5
T3 construct: Biotinylated KRas (corresponding to amino acids 1-169, produced at Accelegan Inc.); biotin (biotinylated); purchased Accelegan Inc
Description: (§1) This Example illustrates that exemplary compounds of the present invention bind to KRas and are capable of displacing a labeled tracer ligand occupying the KRas binding site. KRas^WT, KRas^G12A, KRas^G12C, KRas^G12D, KRas^G12R, KRas^G12S, KRas^G12V, KRas^G13D, or KRas^Q61H was used in the assay.
(§2) The ability of a compound to bind to KRas was measured using a TR-FRET displacement assay. Biotinylated KRas (corresponding to amino acids 1-169, produced at Accelegan Inc.) was incubated with custom made Cy5 labelled tracer, terbium streptavidin (Cisbio Inc.) and compound (1% DMSO final) in buffer (50 mM HEPES, pH 7.5, 5 mM MgCl2, 0.005% Tween-20 and 1 mM DTT). After a 60-minute incubation at room temperature, the reaction was measured using a BMG LABTECH CLARIO star Plus via TR-FRET. […] The POC values were fit to a 4-parameter IC50 equation and the IC50 value reported.

KRas G12S = biological target: T4, KRas G12S (Homo sapiens, UniProt P01116, G12S); assay: as above; conditions: 60-minute incubation at room temperature, 1% DMSO, pH 7.5
T4 construct: Biotinylated KRas (corresponding to amino acids 1-169, produced at Accelegan Inc.); biotin (biotinylated); purchased Accelegan Inc
Description: as §1, §2

KRas WT = biological target: T5, KRas WT (Homo sapiens, UniProt P01116); assay: as above; conditions: 60-minute incubation at room temperature, 1% DMSO, pH 7.5
T5 construct: Biotinylated KRas (corresponding to amino acids 1-169, produced at Accelegan Inc.); biotin (biotinylated); purchased Accelegan Inc
Description: as §1, §2

T5 sequence (P01116 1-169 isoform P01116-2): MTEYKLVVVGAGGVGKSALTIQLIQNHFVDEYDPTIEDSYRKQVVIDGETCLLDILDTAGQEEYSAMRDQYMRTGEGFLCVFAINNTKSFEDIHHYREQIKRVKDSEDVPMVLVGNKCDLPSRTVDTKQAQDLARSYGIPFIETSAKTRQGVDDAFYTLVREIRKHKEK
T1 sequence (P01116 1-188 isoform P01116-2): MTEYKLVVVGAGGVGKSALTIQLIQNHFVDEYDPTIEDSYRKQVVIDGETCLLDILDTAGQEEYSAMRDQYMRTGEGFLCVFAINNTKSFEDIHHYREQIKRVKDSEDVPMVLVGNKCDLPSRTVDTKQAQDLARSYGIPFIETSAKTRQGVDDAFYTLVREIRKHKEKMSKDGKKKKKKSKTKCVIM
T3 sequence (P01116 1-169 isoform P01116-2 G12C): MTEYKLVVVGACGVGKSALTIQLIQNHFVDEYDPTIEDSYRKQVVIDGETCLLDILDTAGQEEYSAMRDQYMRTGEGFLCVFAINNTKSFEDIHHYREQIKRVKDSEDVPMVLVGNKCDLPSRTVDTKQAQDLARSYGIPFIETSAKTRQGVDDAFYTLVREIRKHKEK
T2 sequence (P01116 1-188 isoform P01116-2 G12S): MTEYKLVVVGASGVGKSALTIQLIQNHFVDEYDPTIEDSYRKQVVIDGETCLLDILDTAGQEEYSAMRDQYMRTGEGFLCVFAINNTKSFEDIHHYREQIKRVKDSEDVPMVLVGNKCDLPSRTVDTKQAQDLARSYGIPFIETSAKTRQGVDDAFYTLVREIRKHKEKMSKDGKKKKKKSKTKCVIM
T4 sequence (P01116 1-169 isoform P01116-2 G12S): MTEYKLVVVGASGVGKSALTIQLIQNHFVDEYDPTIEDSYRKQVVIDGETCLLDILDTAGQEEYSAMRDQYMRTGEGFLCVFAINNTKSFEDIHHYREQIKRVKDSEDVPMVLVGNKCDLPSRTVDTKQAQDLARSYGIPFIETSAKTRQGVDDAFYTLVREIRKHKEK

Structure (SMILES) | IC50 [1] [nM] | IC50 [2] [nM] | IC50 (KRas G12C) [nM] | IC50 (KRas G12S) [nM] | IC50 (KRas WT) [nM]
O=C(Oc1ccc(C(F)(F)F)cc1)C1CCN(c2nc(OCC34CCCN3CCC4)nc3c(F)c(-c4cccc5cccc(F)c45)ncc23)CC1 [Example 42, 4-(trifluoromethyl)phenyl 1-(8-fluoro-7-(8-fluoronaphthalen-1-yl)-2-((tetrahydro-1H-pyrrolizin-7a(5H)-yl)methoxy)pyrido[4,3-d]pyrimidin-4-yl)piperidine-4-carboxylate] | – | – | 768 | 68100 | > 100000
O=C(Oc1ccc(F)c(F)c1)C1CCN(c2nc(OCC34CCCN3CCC4)nc3c(F)c(-c4cccc5cccc(F)c45)ncc23)CC1 [Example 43, 3,4-difluorophenyl 1-(8-fluoro-7-(8-fluoronaphthalen-1-yl)-2-((tetrahydro-1H-pyrrolizin-7a(5H)-yl)methoxy)pyrido[4,3-d]pyrimidin-4-yl)piperidine-4-carboxylate] | – | – | 424 | 42100 | > 100000
O=C(Oc1ccccc1)C1CCN(c2nc(OCC34CCCN3CCC4)nc3c(F)c(-c4cccc5cccc(F)c45)ncc23)CC1 [Example 44, phenyl 1-(8-fluoro-7-(8-fluoronaphthalen-1-yl)-2-((tetrahydro-1H-pyrrolizin-7a(5H)-yl)methoxy)pyrido[4,3-d]pyrimidin-4-yl)piperidine-4-carboxylate] | – | – | 1770 | 81100 | > 100000
COC(=O)[C@H]1CCN(c2nc(OCC34CCCN3CCC4)nc3c(F)c(-c4cccc5cccc(F)c45)ncc23)C[C@@H]1O [Example 45, methyl (3R,4S)-1-(8-fluoro-7-(8-fluoronaphthalen-1-yl)-2-((tetrahydro-1H-pyrrolizin-7a(5H)-yl)methoxy)pyrido[4,3-d]pyrimidin-4-yl)-3-hydroxypiperidine-4-carboxylate] | – | – | > 100000 | > 100000 | 65700
COC(=O)[C@H]1CCN(c2nc(OCC34CCCN3CCC4)nc3c(F)c(-c4cccc5cccc(F)c45)ncc23)C[C@H]1O [Example 46, methyl (3S,4S)-1-(8-fluoro-7-(8-fluoronaphthalen-1-yl)-2-((tetrahydro-1H-pyrrolizin-7a(5H)-yl)methoxy)pyrido[4,3-d]pyrimidin-4-yl)-3-hydroxypiperidine-4-carboxylate] | – | – | > 100000 | > 100000 | > 100000
COC(=O)[C@@H]1CCN(c2nc(OCC34CCCN3CCC4)nc3c(F)c(-c4cccc5cccc(F)c45)ncc23)C[C@@H]1O [Example 47, methyl (3R,4R)-1-(8-fluoro-7-(8-fluoronaphthalen-1-yl)-2-((tetrahydro-1H-pyrrolizin-7a(5H)-yl)methoxy)pyrido[4,3-d]pyrimidin-4-yl)-3-hydroxypiperidine-4-carboxylate] | – | – | > 100000 | > 100000 | > 100000
O=C(Oc1ccccc1)C1CCCN(c2nc(OCC34CCCN3CCC4)nc3c(F)c(-c4cccc5cccc(F)c45)ncc23)C1 (centres unmarked) [Example 51, phenyl 1-(8-fluoro-7-(8-fluoronaphthalen-1-yl)-2-((tetrahydro-1H-pyrrolizin-7a(5H)-yl)methoxy)pyrido[4,3-d]pyrimidin-4-yl)piperidine-3-carboxylate] | – | – | 30300 | 56500 | 25400
O=C(Oc1ccccc1F)C1CCCN(c2nc(OCC34CCCN3CCC4)nc3c(F)c(-c4cccc5cccc(F)c45)ncc23)C1 (centres unmarked) [Example 52, 2-fluorophenyl 1-(8-fluoro-7-(8-fluoronaphthalen-1-yl)-2-((tetrahydro-1H-pyrrolizin-7a(5H)-yl)methoxy)pyrido[4,3-d]pyrimidin-4-yl)piperidine-3-carboxylate] | – | – | 6810 | 27100 | 20200

Now from value to compound:

IC50 [1] [nM] | IC50 [2] [nM] | IC50 (KRas G12C) [nM] | IC50 (KRas G12S) [nM] | IC50 (KRas WT) [nM] | Structure (SMILES)
9480 | 534 | – | – | – | Cc1ccn(C(=O)[C@H]2CCCN(c3nc(OC[C@@]45CCCN4C[C@H](F)C5)nc4c(F)c(-c5ccc(F)c6sc(N)c(C#N)c56)c(Cl)cc34)CC2)n1 (atropisomer, axis not shown; (aS)) [Example 169, 2-amino-4-((R)-6-chloro-8-fluoro-2-(((2R,7aS)-2-fluorotetrahydro-1H-pyrrolizin-7a(5H)-yl)methoxy)-4-((S)-4-(3-methyl-1H-pyrazole-1-carbonyl)azepan-1-yl)quinazolin-7-yl)-7-fluorobenzo [b]thiophene-3-carbonitrile]
3040 | 6440 | – | – | – | Cc1ccn(C(=O)[C@@H]2CCCN(c3nc(OC[C@@]45CCCN4C[C@H](F)C5)nc4c(F)c(-c5ccc(F)c6sc(N)c(C#N)c56)c(Cl)cc34)CC2)n1 (atropisomer, axis not shown; (aS)) [Example 171, 2-amino-4-((R)-6-chloro-8-fluoro-2-(((2R,7aS)-2-fluorotetrahydro-1H-pyrrolizin-7a(5H)-yl)methoxy)-4-((R)-4-(3-methyl-1H-pyrazole-1-carbonyl)azepan-1-yl)quinazolin-7-yl)-7-fluorobenzo[b]thiophene-3-carbonitrile]
1050 | 54 | 58 | 26 | – | CCc1c(F)ccc2cc(O)cc(-c3ncc4c(N5CC[C@H]6[C@@H](C5)[C@H]6C(=O)n5ccc(C)n5)nc(OC[C@@]56CCCN5C[C@H](F)C6)nc4c3F)c12 (stereo in doubt) [Example 99, (cis-3-(7-(8-ethyl-7-fluoro-3-hydroxynaphthalen-1-yl)-8-fluoro-2-(((2R,7aS)-2-fluorotetrahydro-1H-pyrrolizin-7a(5H)-yl)methoxy)pyrido[4,3-d]pyrimidin-4-yl)-3-azabicyclo[4.1.0]heptan-7-yl)(3-methyl-1H-pyrazol-1-yl)methanone]
4230 | 8960 | 3450 | 2200 | 2320 | CCc1c(F)ccc2cc(O)cc(-c3ncc4c(N5C[C@@H](C)N(C(=O)n6ccc(C)n6)[C@H](C)C5)nc(OC[C@@]56CCCN5C[C@H](F)C6)nc4c3F)c12 [Example 86, ((2R,6R)-4-(7-(8-ethyl-7-fluoro-3-hydroxynaphthalen-1-yl)-8-fluoro-2-(((2R,7aS)-2-fluorotetrahydro-1H-pyrrolizin-7a(5H)-yl)methoxy)pyrido[4,3-d]pyrimidin-4-yl)-2,6-dimethylpiperazin-1-yl)(3-methyl-1H-pyrazol-1-yl)methanone]
4060 | > 10000 | 365 | 1680 | 1580 | CCc1c(F)ccc2cc(O)cc(-c3ncc4c(N5CC6(C(=O)n7ccc(C)n7)CCCC5C6)nc(OC[C@@]56CCCN5C[C@H](F)C6)nc4c3F)c12 (stereo partly drawn) [Example 87, (6-(7-(8-ethyl-7-fluoro-3-hydroxynaphthalen-1-yl)-8-fluoro-2-(((2R,7aS)-2-fluorotetrahydro-1H-pyrrolizin-7a(5H)-yl)methoxy)pyrido[4,3-d]pyrimidin-4-yl)-6-azabicyclo[3.2.1]octan-1-yl)(3-methyl-1H-pyrazol-1-yl)methanone]
– | 6810 | 96 | 168 | 84 | CCc1c(F)ccc2cc(O)cc(-c3ncc4c(N5CCN(C(=O)n6ccc(C)n6)C(C(F)F)C5)nc(OC[C@@]56CCCN5C[C@H](F)C6)nc4c3F)c12 (stereo partly drawn) [Example 125, (2-(difluoromethyl)-4-(7-(8-ethyl-7-fluoro-3-hydroxynaphthalen-1-yl)-8-fluoro-2-(((2R,7aS)-2-fluorotetrahydro-1H-pyrrolizin-7a(5H)-yl)methoxy)pyrido[4,3-d]pyrimidin-4-yl)piperazin-1-yl)(3-methyl-1H-pyrazol-1-yl)methanone]
– | 9800 | 84 | 88 | 8 | CCc1c(F)ccc2cc(O)cc(-c3ncc4c(N5CCN(C(=O)n6ccc(C)n6)C(CC#N)C5)nc(OC[C@@]56CCCN5C[C@H](F)C6)nc4c3F)c12 (stereo partly drawn) [Example 126, 2-(4-(7-(8-ethyl-7-fluoro-3-hydroxynaphthalen-1-yl)-8-fluoro-2-(((2R,7aS)-2-fluorotetrahydro-1H-pyrrolizin-7a(5H)-yl)methoxy)pyrido[4,3-d]pyrimidin-4-yl)-1-(3-methyl-1H-pyrazole-1-carbonyl)piperazin-2-yl) acetonitrile]
– | – | 12 | 14 | 23 | CCc1c(F)ccc2cc(O)cc(-c3ncc4c(N(C)CCCC(=O)NC(C)=O)nc(OC[C@@]56CCCN5C[C@H](F)C6)nc4c3F)c12 [Example 325, N-acetyl-4-((7-(8-ethyl-7-fluoro-3-hydroxynaphthalen-1-yl)-8-fluoro-2-(((2R,7aS)-2-fluorotetrahydro-1H-pyrrolizin-7a(5H)-yl)methoxy)pyrido[4,3-d]pyrimidin-4-yl)(methyl)amino)butanamide]
